In PubChem BioAssay AID248 (DTP/NCI, 2004) one finds T/C data, which are given here for 25 compounds.

This assay concerns L1210 leukemia ip in BDF1 mice, survival T/C. Put plainly: NCI In Vivo Anticancer Drug Screen. Data for tumor model L1210 Leukemia (intraperitoneal) in B6D2F1 (BDF1) mice. Particulars: endpoint: mean survival time, higher = longer survival. The essentials:
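Tumor cells were implanted, animals were treated, and survival was followed. The result divides the treated measurement by the vehicle-control measurement.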

[1] abbreviates: dose: 100.0 mg/kg/injection, schedule: Q04DX002 (ip), vehicle: saline with Tween-80.
Setting [2] is: dose: 200.0 mg/kg/injection, schedule: Q04DX002 (ip), vehicle: saline with Tween-80.
[3] abbreviates: dose: 400.0 mg/kg/injection, schedule: Q04DX002 (ip), vehicle: saline with Tween-80.
The mark [4] stands for this setting: dose: 100.0 mg/kg/injection, schedule: Q01DX009 (ip), vehicle: Klucel (hydroxypropylcellulose) (HPC).
Setting [5] is: dose: 100.0 mg/kg/injection, schedule: Q04DX002 (ip), vehicle: Klucel (hydroxypropylcellulose) (HPC).
[6] abbreviates: dose: 200.0 mg/kg/injection, schedule: Q01DX009 (ip), vehicle: Klucel (hydroxypropylcellulose) (HPC).
Where [7] appears, read: dose: 200.0 mg/kg/injection, schedule: Q04DX002 (ip), vehicle: Klucel (hydroxypropylcellulose) (HPC).
[8] abbreviates: dose: 400.0 mg/kg/injection, schedule: Q01DX009 (ip), vehicle: Klucel (hydroxypropylcellulose) (HPC).
The mark [9] stands for this setting: dose: 400.0 mg/kg/injection, schedule: Q04DX002 (ip), vehicle: Klucel (hydroxypropylcellulose) (HPC).
The mark [10] stands for this setting: dose: 50.0 mg/kg/injection, schedule: Q01DX009 (ip), vehicle: saline with Tween-80.
[11] abbreviates: dose: 100.0 mg/kg/injection, schedule: Q01DX009 (ip), vehicle: saline with Tween-80.
The mark [12] stands for this setting: dose: 200.0 mg/kg/injection, schedule: Q01DX009 (ip), vehicle: saline with Tween-80.
Setting [13] is: dose: 100.0 mg/kg/injection, schedule: Q01DX001 (ip), vehicle: carboxymethylcellulose (CMC).
The mark [14] stands for this setting: dose: 200.0 mg/kg/injection, schedule: Q01DX001 (ip), vehicle: carboxymethylcellulose (CMC).
[15] abbreviates: dose: 400.0 mg/kg/injection, schedule: Q01DX001 (ip), vehicle: carboxymethylcellulose (CMC).
The mark [16] stands for this setting: dose: 100.0 mg/kg/injection, schedule: Q04DX002 (ip), vehicle: saline.
Setting [17] is: dose: 200.0 mg/kg/injection, schedule: Q04DX002 (ip), vehicle: saline.
The mark [18] stands for this setting: dose: 100.0 mg/kg/injection, schedule: Q01DX001 (ip), vehicle: saline with Tween-80.
[19] abbreviates: dose: 200.0 mg/kg/injection, schedule: Q01DX001 (ip), vehicle: saline with Tween-80.
[20] abbreviates: dose: 400.0 mg/kg/injection, schedule: Q01DX001 (ip), vehicle: saline with Tween-80.
Where [21] appears, read: dose: 100.0 mg/kg/injection, schedule: Q04DX003 (ip), vehicle: saline with Tween-80.
Where [22] appears, read: dose: 200.0 mg/kg/injection, schedule: Q04DX003 (ip), vehicle: saline with Tween-80.
Where [23] appears, read: dose: 400.0 mg/kg/injection, schedule: Q04DX003 (ip), vehicle: saline with Tween-80.
Where [24] appears, read: dose: 100.0 mg/kg/injection, schedule: Q04DX003 (ip), vehicle: saline.
Setting [25] is: dose: 200.0 mg/kg/injection, schedule: Q04DX003 (ip), vehicle: saline.
The mark [26] stands for this setting: dose: 100.0 mg/kg/injection, schedule: Q04DX003 (ip), vehicle: Klucel (hydroxypropylcellulose) (HPC).
[27] abbreviates: dose: 200.0 mg/kg/injection, schedule: Q04DX003 (ip), vehicle: Klucel (hydroxypropylcellulose) (HPC).
[28] abbreviates: dose: 400.0 mg/kg/injection, schedule: Q04DX003 (ip), vehicle: Klucel (hydroxypropylcellulose) (HPC).

Several values for one entry are separate records, joined by “and”; a condition that tells them apart may be missing. Equal values may be shown once. Toxic doses and inconclusive results are not listed.

As to `CC(=O)Nc1ncccn1`, the T/C is 98 % of control under setting [1], 98 % of control under setting [2] and 98 % of control under setting [3].
For `Cc1ccc(NC(=O)Oc2ccccc2C(=O)OCc2ccccc2)cc1`, the T/C is, setting by setting: under setting [4], 101 % of control; under setting [5], 88 % of control; under setting [6], 106 % of control; under setting [7], 88 % of control; under setting [8], 101 % of control; under setting [9], 107 % of control.
For the compound `COC(=O)c1ccc(C)cc1C(=O)OC`, the T/C by setting is: under setting [10], 107 % of control; under setting [11], 111 % of control; under setting [12], 107 % of control.
For the compound `O=[N+]([O-])c1ccc(SCc2ccc(Br)cc2)c([N+](=O)[O-])c1`, the T/C is, setting by setting: under setting [13], 98 % of control; under setting [14], 104 % of control; under setting [15], 95 % of control.
On to `c1ccc(C2=NC(c3ccccc3)NC2c2ccccc2)cc1` (configuration not stated), for which the T/C is, setting by setting: (dose: 25.0 mg/kg/injection, schedule: Q01DX001 (ip), vehicle: Klucel (hydroxypropylcellulose) (HPC)) 95 % of control; (dose: 50.0 mg/kg/injection, schedule: Q01DX001 (ip), vehicle: Klucel (hydroxypropylcellulose) (HPC)) 98 % of control.
With `Cc1ccc(Cl)c(I)c1`, the T/C under setting [16] is 103 % of control; the T/C under setting [17] was 103 % of control; the T/C (dose: 400.0 mg/kg/injection, schedule: Q04DX002 (ip), vehicle: saline) is 95 % of control.
For `Nc1cc(Sc2ccc(Cl)cc2)nc(N)n1`, the T/C under setting [18] was 100 % of control, the T/C under setting [19] is 100 % of control and the T/C under setting [20] is 100 % of control.
For `CCCC(CCC)(S(=O)(=O)CC)S(=O)(=O)CC`, the T/C is, setting by setting: under setting [13], 97 % of control; under setting [14], 97 % of control; under setting [15], 92 % of control.
Consider `CS(=O)(=O)OCCC(COS(C)(=O)=O)S(=O)(=O)CCCOc1ccccc1-c1ccccc1` (configuration not stated), for which the T/C under setting [10] is 94 % of control, the T/C under setting [11] is 94 % of control and the T/C under setting [12] was 94 % of control.
For `OCC1OC(n2cnc3c([Se])ncnc32)C(O)C1O` (configuration not stated), the T/C (dose: 100.0 mg/kg/injection, schedule: Q01DX005 (ip), vehicle: saline) was 105 % of control.
As for `CCOC(=O)N(OCc1ccccc1)P(=O)(N1CC1(C)C)N1CC1(C)C` (configuration not stated), the T/C was 158 % of control under setting [16] and 153 % of control under setting [17].
With `CCOC(=O)c1ccc(NC(=O)Nc2ccc(OC)cc2Cl)cc1`, the T/C is 96 % of control under setting [18]; 104 % of control under setting [11]; 94 % of control and 90 % of control under setting [1]; 101 % of control under setting [21]; 91 % of control under setting [19]; 104 % of control under setting [12]. Moreover, the T/C reads like this: under setting [2], 90 % of control and 91 % of control; under setting [22], 97 % of control; under setting [20], 106 % of control; (dose: 400.0 mg/kg/injection, schedule: Q01DX009 (ip), vehicle: saline with Tween-80) 92 % of control; under setting [3], 94 % of control and 87 % of control; under setting [23], 92 % of control.
With `CCOC(=O)C1C(CCCCO)CC(=O)CC1(C)C(N)=O` (configuration not stated), the T/C by setting is: (dose: 100.0 mg/kg/injection, schedule: Q01DX001 (ip), vehicle: saline) 97 % of control; (dose: 200.0 mg/kg/injection, schedule: Q01DX001 (ip), vehicle: saline) 91 % of control; (dose: 400.0 mg/kg/injection, schedule: Q01DX001 (ip), vehicle: saline) 95 % of control.
As for `C/C=C/C(OC(C)=O)OC(C)=O`, the T/C reads like this: under setting [10], 101 % of control; under setting [11], 101 % of control; under setting [12], 101 % of control.
As to `Nc1ncnc(N)c1NC(=O)CCCCc1ccccc1`, the T/C is, setting by setting: under setting [24], 100 % of control; under setting [25], 92 % of control; (dose: 400.0 mg/kg/injection, schedule: Q04DX003 (ip), vehicle: saline) 100 % of control.
As to `Cc1ccc([N+](=O)[O-])cc1NC(=O)Nc1cccc(F)c1`, the T/C was 93 % of control (dose: 6.25 mg/kg/injection, schedule: Q01DX009 (ip), vehicle: Klucel (hydroxypropylcellulose) (HPC)); 87 % of control (dose: 12.5 mg/kg/injection, schedule: Q01DX009 (ip), vehicle: Klucel (hydroxypropylcellulose) (HPC)); 92 % of control (dose: 25.0 mg/kg/injection, schedule: Q01DX009 (ip), vehicle: Klucel (hydroxypropylcellulose) (HPC)); 86 % of control under setting [8].
`Cc1cc2nc(CC(O)(C(F)(F)F)C(F)(F)F)oc2cc1C`: the T/C is, setting by setting: under setting [21], 96 % of control; under setting [22], 102 % of control; under setting [23], 101 % of control.
For `Cc1ccc(C(=O)C2CC2)cc1C`, the T/C by setting is: under setting [10], 100 % of control; under setting [11], 91 % of control; under setting [21], 98 % of control; under setting [12], 91 % of control; (dose: 202.0 mg/kg/injection, schedule: Q04DX003 (ip), vehicle: saline with Tween-80) 107 % of control.
In the case of `Cc1ccc(OCc2c(COc3ccc(Cl)cc3)sc3ccc(Cl)cc23)cc1`, the T/C is 97 % of control (dose: 12.5 mg/kg/injection, schedule: Q01DX009 (ip), vehicle: saline with Tween-80); 95 % of control (dose: 25.0 mg/kg/injection, schedule: Q01DX009 (ip), vehicle: saline with Tween-80); 87 % of control (dose: 25.0 mg/kg/injection, schedule: Q04DX003 (ip), vehicle: saline with Tween-80); 101 % of control under setting [10]; 87 % of control (dose: 50.0 mg/kg/injection, schedule: Q04DX003 (ip), vehicle: saline with Tween-80).
In the case of `O=C(NCCCl)NC(Cc1ccccc1)Cc1ccccc1`, the T/C under setting [26] was 95 % of control, the T/C under setting [27] is 91 % of control and the T/C under setting [28] is 95 % of control.
With `COc1ccc([N+](=O)[O-])cc1NC(=O)N1CCCCC1C` (configuration not stated), the T/C runs as follows: (dose: 100.0 mg/kg/injection, schedule: Q01DX001 (ip), vehicle: Klucel (hydroxypropylcellulose) (HPC)) 101 % of control; under setting [4], 98 % of control and 102 % of control; under setting [5], 97 % of control and 103 % of control; under setting [26], 106 % of control; (dose: 200.0 mg/kg/injection, schedule: Q01DX001 (ip), vehicle: Klucel (hydroxypropylcellulose) (HPC)) 102 % of control; under setting [6], 98 % of control and 106 % of control. Besides, the T/C by setting is: under setting [7], 94 % of control and 105 % of control; under setting [27], 99 % of control; (dose: 400.0 mg/kg/injection, schedule: Q01DX001 (ip), vehicle: Klucel (hydroxypropylcellulose) (HPC)) 96 % of control; under setting [8], 95 % of control and 96 % of control; under setting [9], 94 % of control and 110 % of control; under setting [28], 91 % of control.
Consider `NOC(=O)c1ccc([N+](=O)[O-])cc1`, for which the T/C runs as follows: under setting [5], 94 % of control; under setting [7], 94 % of control; under setting [9], 94 % of control.
`O=C(O)CSC(=S)N1CCOCC1`: the T/C was 91 % of control under setting [18], 88 % of control under setting [19] and 94 % of control under setting [20].
With `CC(N)CC(C)(C)N` (configuration not stated), the T/C runs as follows: (dose: 50.0 mg/kg/injection, schedule: Q04DX003 (ip), vehicle: saline) 90 % of control; under setting [24], 91 % of control; under setting [25], 90 % of control.
As for `CC12C(=O)c3ccccc3C(=O)C1C1CCCCC1=C1CCCCC12` (configuration not stated), the T/C runs as follows: under setting [5], 93 % of control; under setting [7], 93 % of control; under setting [9], 101 % of control.
